As usually defined, the Ki is a measure of affinity in units of concentration, obtained from inhibition or displacement. A lower Ki goes with a stronger hold on the target. The term IC50 denotes the concentration that inhibits the measured activity by half. A lower IC50 goes with higher potency.

Test [1] can be described thus: Inhibition of lanosterol 14-alpha-demethylation in hepatic microsomes from human. The format is functional, Liver.
Test [2] addresses T1, Cytochrome P450 11B1, mitochondrial (Homo sapiens, UniProt P15538).
T1 sequence (P15538 whole entry): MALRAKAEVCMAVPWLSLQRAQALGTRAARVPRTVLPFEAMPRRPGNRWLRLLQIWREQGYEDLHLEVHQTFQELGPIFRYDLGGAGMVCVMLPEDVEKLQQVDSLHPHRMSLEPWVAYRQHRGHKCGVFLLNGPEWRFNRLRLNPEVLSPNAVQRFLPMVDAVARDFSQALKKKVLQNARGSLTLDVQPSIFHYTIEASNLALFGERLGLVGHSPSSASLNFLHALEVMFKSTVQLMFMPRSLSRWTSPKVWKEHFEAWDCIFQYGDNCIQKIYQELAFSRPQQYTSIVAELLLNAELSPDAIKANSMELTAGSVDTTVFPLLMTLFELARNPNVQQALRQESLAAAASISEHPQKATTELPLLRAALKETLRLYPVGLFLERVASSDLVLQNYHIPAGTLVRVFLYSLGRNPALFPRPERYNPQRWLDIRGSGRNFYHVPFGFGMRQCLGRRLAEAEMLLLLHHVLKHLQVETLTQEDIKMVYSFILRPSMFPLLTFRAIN
The test is described as follows: Binding affinity for corticoid 11-beta-hydroxylase.

Test [3] has as its system Cricetinae gen. sp. Description: Effect on total serum cholesterol in male hamsters at a dose of 50 mg/kg orally administered for 14 days. It is filed as functional, Cricetulus griseus. Particulars: route oral.
Test [4] deals with Cricetinae gen. sp. The test is described as follows: Effect on total serum cholesterol in male hamsters at a dose of 5 mg/kg orally administered for 14 days. The format is functional, Cricetulus griseus. Particulars: route oral.
Test [5] relates to Cricetinae gen. sp. The test is described as follows: Percentage lowering of the total serum cholesterol in male hamsters at a dose of 10 […] orally administered for 3 days. It is filed as functional, Cricetulus griseus.
In the next test the target is T2, Aromatase (Homo sapiens, UniProt P11511).
T2 sequence (P11511 whole entry): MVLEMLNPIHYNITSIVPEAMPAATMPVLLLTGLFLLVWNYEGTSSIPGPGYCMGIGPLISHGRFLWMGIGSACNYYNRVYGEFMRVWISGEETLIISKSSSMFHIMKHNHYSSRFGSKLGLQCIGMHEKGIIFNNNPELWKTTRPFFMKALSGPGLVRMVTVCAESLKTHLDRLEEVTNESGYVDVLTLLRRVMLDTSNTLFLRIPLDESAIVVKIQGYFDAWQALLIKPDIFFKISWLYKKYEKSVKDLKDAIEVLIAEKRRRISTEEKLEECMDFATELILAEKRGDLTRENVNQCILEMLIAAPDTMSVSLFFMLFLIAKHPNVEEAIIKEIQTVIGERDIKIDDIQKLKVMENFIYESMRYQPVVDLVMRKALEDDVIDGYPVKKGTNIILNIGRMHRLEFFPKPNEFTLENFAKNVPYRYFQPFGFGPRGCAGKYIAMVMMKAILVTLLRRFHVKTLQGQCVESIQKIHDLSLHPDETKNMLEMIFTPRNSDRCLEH
Description: Binding affinity for Cytochrome P450 19A1.

Test [6] concerns the target T3, Steroid 17-alpha-hydroxylase/17,20 lyase (Homo sapiens, UniProt P05093).
T3 sequence (P05093 whole entry): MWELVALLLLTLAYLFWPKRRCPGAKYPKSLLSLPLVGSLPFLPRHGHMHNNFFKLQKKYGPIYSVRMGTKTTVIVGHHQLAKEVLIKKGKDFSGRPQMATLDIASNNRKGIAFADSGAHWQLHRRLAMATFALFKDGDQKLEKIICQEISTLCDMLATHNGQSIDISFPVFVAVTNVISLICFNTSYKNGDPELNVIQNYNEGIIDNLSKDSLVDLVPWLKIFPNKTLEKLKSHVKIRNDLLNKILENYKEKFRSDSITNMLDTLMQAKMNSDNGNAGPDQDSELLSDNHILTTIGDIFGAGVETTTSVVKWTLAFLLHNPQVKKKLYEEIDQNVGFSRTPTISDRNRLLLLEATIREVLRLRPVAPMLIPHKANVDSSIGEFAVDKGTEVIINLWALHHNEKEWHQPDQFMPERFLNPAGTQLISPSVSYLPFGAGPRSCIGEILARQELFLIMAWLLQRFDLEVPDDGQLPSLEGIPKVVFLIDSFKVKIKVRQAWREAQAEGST
Description: Binding affinity for progesterone 17-alpha,20-lyase.

Test [7] has as its system Cricetinae gen. sp. The test is described as follows: Percentage lowering of the total serum cholesterol in male hamsters at a dose of 50 mg/dL orally administered for 14 days. It is filed as functional, Cricetulus griseus.
Test [8] has as its system Cricetinae gen. sp. Description: Percentage lowering of the total serum cholesterol in male hamsters at a dose of 30 mg/dL orally administered for 3 days. The format is functional, Cricetulus griseus.
For a further test, the target named is Cytochrome P450 3A4 (Homo sapiens, UniProt P08684). The test is described as follows: Binding affinity for progesterone 6-beta-hydroxylase of hepatic microsomes. The format is ADME.
Sequence of Cytochrome P450 3A4 (P08684 whole entry): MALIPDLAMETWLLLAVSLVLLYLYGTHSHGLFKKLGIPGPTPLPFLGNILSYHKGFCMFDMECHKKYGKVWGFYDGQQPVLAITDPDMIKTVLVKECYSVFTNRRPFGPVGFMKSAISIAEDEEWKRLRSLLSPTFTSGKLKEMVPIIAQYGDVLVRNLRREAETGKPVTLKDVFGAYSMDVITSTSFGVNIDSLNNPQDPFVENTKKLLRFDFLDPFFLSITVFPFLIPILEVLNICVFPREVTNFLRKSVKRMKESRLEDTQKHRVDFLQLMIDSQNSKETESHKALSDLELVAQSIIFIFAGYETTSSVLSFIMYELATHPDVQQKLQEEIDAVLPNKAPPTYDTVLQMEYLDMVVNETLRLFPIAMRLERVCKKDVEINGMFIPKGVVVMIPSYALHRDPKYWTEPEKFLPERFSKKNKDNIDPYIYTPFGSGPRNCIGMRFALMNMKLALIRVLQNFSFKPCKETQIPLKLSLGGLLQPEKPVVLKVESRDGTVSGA
Test [9] relates to Cricetinae gen. sp. Description: Percentage lowering of the total serum cholesterol in male hamsters at a dose of 100 […] orally administered for 3 days. The format is functional, Cricetulus griseus.
The nature of test [10]: Inhibition of lanosterol 14-alpha-demethylation in hepatic microsomes from rat. The format is functional, Liver.
The nature of test [11]: Inhibition of lanosterol 14-alpha-demethylation in hepatic microsomes from hamster. The format is functional, Cricetulus griseus, Liver.
Test [12] concerns Cricetinae gen. sp. Description: Effect on total serum cholesterol in male hamsters at a dose of 25 mg/kg orally administered for 14 days. It is filed as functional, Cricetulus griseus. Particulars: route oral.
Test [13] has as its target T3, Steroid 17-alpha-hydroxylase/17,20 lyase. The test is described as follows: Binding affinity for […] 17-alpha-hydroxylase.
Test [14] has as its system Cricetinae gen. sp. The test is described as follows: Effect on total serum cholesterol in male hamsters at a dose of 10 mg/kg orally administered for 3 days. To be noted: route oral. The format is functional, Cricetulus griseus.
Test [15] has as its system Cricetinae gen. sp. Description: Percentage lowering of the total serum cholesterol in male hamsters at a dose of 25 mg/dL orally administered for 14 days. The format is functional, Cricetulus griseus.
The next test is filed under the species Homo sapiens. The test is described as follows: Inhibition of cellular cholesterol biosynthesis using human fibroblasts in tissue culture. It is filed as functional, organism-based.
For test [16], the system named is Cricetinae gen. sp. The test is described as follows: Effect on total serum cholesterol in male hamsters at a dose of 100 mg/kg orally administered for 3 days. It is filed as functional, Cricetulus griseus. Particulars: route oral.
In test [17] the test system is Cricetinae gen. sp. The test is described as follows: Effect on total serum cholesterol in male hamsters at a dose of 30 mg/kg orally administered for 3 days. It is filed as functional, Cricetulus griseus. To be noted: route oral.
Test [18] relates to Cricetinae gen. sp. The test is described as follows: Percentage lowering of the total serum cholesterol in male hamsters at a dose of 10 […] orally administered for 14 days. The format is functional, Cricetulus griseus.
Test [19] has as its system Cricetinae gen. sp. The test is described as follows: Effect on total serum cholesterol in male hamsters at a dose of 10 mg/kg orally administered for 14 days. To be noted: route oral. It is filed as functional, Cricetulus griseus.
The test system of test [20] is Cricetinae gen. sp. Description: Percentage lowering of the total serum cholesterol in male hamsters at a dose of 5 mg/dL orally administered for 14 days. It is filed as functional, Cricetulus griseus.
Test [21] has as its system Cricetinae gen. sp. Description: Effect on total serum cholesterol in male hamsters at a dose of 100 mg/kg orally administered for 14 days. It is filed as functional, Cricetulus griseus. To be noted: route oral.
In test [22] the test system is Cricetinae gen. sp. The test is described as follows: Percentage increase of the total serum cholesterol in male hamsters at a dose of 10 […] orally administered for 14 days. The format is functional, Cricetulus griseus.
For test [23], the system named is Cricetinae gen. sp. Description: Effect on total serum cholesterol in male hamsters at a dose of 60 mg/kg orally administered for 3 days. The format is functional, Cricetulus griseus. To be noted: route oral.
Test [24] concerns Cricetinae gen. sp. The test is described as follows: Percentage lowering of the total serum cholesterol in male hamsters at a dose of 100 […] orally administered for 14 days. The format is functional, Cricetulus griseus.
Test [25] has as its system Cricetinae gen. sp. Description: Percentage increase of the total serum cholesterol in male hamsters at a dose of 25 […] orally administered for 14 days. The format is functional, Cricetulus griseus.
Test [26] concerns Cricetinae gen. sp. Description: Percentage lowering of the total serum cholesterol in male hamsters at a dose of 60 […] orally administered for 3 days. It is filed as functional, Cricetulus griseus.

In the case of `Nc1ccc(SC[C@@H]2CO[C@](CCc3ccc(Cl)cc3)(Cn3ccnc3)O2)cc1` [AZALANSTAT], the Ki in test [1] worked out at 0.79 nM; in [2], 35 nM; at Aromatase, 7.6 nM; in [6], 447 nM; on Cytochrome P450 3A4, 28 nM; in test [10], 2.5 nM. In addition, the results for the inhibition constant (Ki) in test [11] and in [13] were 1.4 nM and 1620 nM, respectively. Moreover, the TC in the test on Cricetinae gen. sp. [3] came out at 74.7 mg/dL; with Cricetinae gen. sp. [4], 115.5 mg/dL; with Cricetinae gen. sp. [12] it was 82.9 mg/dL; with Cricetinae gen. sp. [14], 85.1 mg/dL; in the test on Cricetinae gen. sp. [16], 41.8 mg/dL; with Cricetinae gen. sp. [17], 71 mg/dL. The TC in the test with Cricetinae gen. sp. [19] amounted to 104 mg/dL. The Lowering in the test on Cricetinae gen. sp. [5] is 23%; in the test with Cricetinae gen. sp. [7] it was 37%; in the test on Cricetinae gen. sp. [8], 36%; in the test on Cricetinae gen. sp. [9], 62%; in the test with Cricetinae gen. sp. [15], 30%; with Cricetinae gen. sp. [18], 12%. In the test on Cricetinae gen. sp. [20], this compound displayed a Lowering of 2%. The compound also came in with a half-maximal inhibitory concentration (IC50) in the test listed under Homo sapiens of 0.09 nM.
For `Nc1ccc(SC[C@H]2CO[C@@](CCc3ccc(Cl)cc3)(Cn3ccnc3)O2)cc1`, the inhibition constant Ki in test [2] was determined as 15 nM; at Aromatase it was 13 nM; in test [6] it was 54 nM; on Cytochrome P450 3A4, 33 nM; in test [13], 109 nM. Besides, the results for the Lowering in the test with Cricetinae gen. sp. [5], in the test with Cricetinae gen. sp. [8] and in the test on Cricetinae gen. sp. [9] were 5%, 13% and 22%, respectively. Further, the TC in the test on Cricetinae gen. sp. [14] came out at 105.7 mg/dL; in the test on Cricetinae gen. sp. [16] it was 86 mg/dL; in the test with Cricetinae gen. sp. [17] it was 96.4 mg/dL. The compound also had an IC50 in the test listed under Homo sapiens of 8 nM.
As for `Nc1ccc(SC[C@@H]2CO[C@@](CCc3ccc(Cl)cc3)(Cn3ccnc3)O2)cc1`, the TC in the test with Cricetinae gen. sp. [21] worked out at 113.3 mg/dL; in the test on Cricetinae gen. sp. [3], 112.4 mg/dL; with Cricetinae gen. sp. [23], 120.4 mg/dL; in the test with Cricetinae gen. sp. [12] it was 125.8 mg/dL; in the test on Cricetinae gen. sp. [19], 125.2 mg/dL. The Increase in the test on Cricetinae gen. sp. [22] and with Cricetinae gen. sp. [25] was 6% throughout. Moreover, the Lowering with Cricetinae gen. sp. [7] is listed as 6%; in the test on Cricetinae gen. sp. [24] it was 4%; with Cricetinae gen. sp. [26], 15%.

Values taken from ChEMBL document CHEMBL1127068, “Selective inhibition of mammalian lanosterol 14 alpha-demethylase: a possible strategy for cholesterol lowering” (J Med Chem, 1993).
